This is an account of results in PubChem BioAssay (NCI).

Among the test systems are LOX IMVI melanoma; CCRF-CEM leukemia; OVCAR-3 ovarian; KM12 colon; UACC-62 melanoma; HCT-116 colon; OVCAR-5 ovarian; M14 melanoma; A549 NSCLC; NCI-H522 lung.
What all share (test): inhibition of tumour cell growth, NCI panel, 48 h

Where “and” joins values, the source holds several entries; their conditions need not be identical. Equal values may be shown once.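 Where inhibition never reached the appropriate level, the endpoint shown equals the highest concentration tested. Otherwise, values were interpolated linearly from a five-concentration, 48-hour dose response in 96-well plates. GI50 = concentration required for 50% inhibition of growth. TGI marks complete inhibition of growth.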

Turning to `CC12CCC(O)CC1CCC1C2CCC2(C)C(C3=CC(=O)OC3)CCC12O` (stereo not drawn), the TGI is 10.6 µM in the experiment on LOX IMVI melanoma; over 100 µM with CCRF-CEM leukemia; 10.3 µM in the experiment on OVCAR-3 ovarian; over 43.3 µM in the experiment on KM12 colon; 12.8 µM with UACC-62 melanoma; 4.44 µM in the experiment with HCT-116 colon. Besides, the TGI in the experiment on OVCAR-5 ovarian came to 16.9 µM; with M14 melanoma, 19 µM; in the experiment on A549 NSCLC, 1.96 µM; in the experiment with NCI-H522 lung it was 4.9 µM.
Consider `CCCCCN(CCCCC)CC(O)c1cc(C)c2ccc3cc(C(C)C)ccc3c2c1` (stereo not drawn), for which the GI50 in the experiment with LOX IMVI melanoma was 1.76 µM; with CCRF-CEM leukemia it was 2.19 µM; in the experiment on OVCAR-3 ovarian, 1.92 µM; in the experiment with KM12 colon, 1.8 µM; in the experiment with UACC-62 melanoma, 1.71 µM; in the experiment with HCT-116 colon, 1.73 µM. Moreover, the GI50 is 1.8 µM in the experiment on OVCAR-5 ovarian, 1.77 µM with M14 melanoma, 2.61 µM with A549 NSCLC and 1.81 µM in the experiment with NCI-H522 lung. Besides, the TGI in the experiment with LOX IMVI melanoma was found to be 3.28 µM; in the experiment on CCRF-CEM leukemia it was 5.53 µM; in the experiment with OVCAR-3 ovarian, 3.41 µM; in the experiment on KM12 colon, 3.36 µM; in the experiment with UACC-62 melanoma, 3.47 µM; in the experiment with HCT-116 colon, 3.32 µM. In addition, the TGI turned out to be 3.66 µM in the experiment on OVCAR-5 ovarian, 3.7 µM in the experiment with M14 melanoma, 5.58 µM in the experiment with A549 NSCLC and 3.85 µM in the experiment with NCI-H522 lung.
`O=C(Nc1ccc(Cl)c(Cl)c1)Nc1ccc(Cl)c(Cl)c1`: the GI50 was 2.26 µM and 2.95 µM in the experiment with LOX IMVI melanoma; 3.36 µM and 1.97 µM in the experiment on CCRF-CEM leukemia; 3.03 µM and 1.66 µM in the experiment on OVCAR-3 ovarian; 3.04 µM and 2.52 µM in the experiment with KM12 colon; 2.88 µM and 2.38 µM in the experiment with UACC-62 melanoma; 2.85 µM and 2.1 µM in the experiment with HCT-116 colon. The GI50 in the experiment on OVCAR-5 ovarian was 2.74 µM and 4.27 µM; in the experiment with M14 melanoma, 3.1 µM; in the experiment with A549 NSCLC, 2.98 µM and 2.29 µM; in the experiment with NCI-H522 lung, 1.68 µM and 1.25 µM. Also, the TGI with LOX IMVI melanoma is 4.94 µM and 10.3 µM; in the experiment on CCRF-CEM leukemia, 14.1 µM and 6.47 µM; in the experiment with OVCAR-3 ovarian, 10.9 µM and 5.9 µM; in the experiment with KM12 colon it was 11.6 µM and 6.99 µM; with UACC-62 melanoma it was 13.4 µM and 10.4 µM; in the experiment on HCT-116 colon, 11 µM and 7.41 µM. Further, the TGI in the experiment on OVCAR-5 ovarian was 7.53 µM and 17.6 µM; with M14 melanoma it was 9.59 µM; in the experiment on A549 NSCLC, 15.6 µM and 10.6 µM; with NCI-H522 lung, 5.67 µM and 3.03 µM.
Take `CC1(c2ccc(F)cc2)C(C#N)C(=O)NC(=O)C1C#N` (stereo not drawn): the TGI in the experiment on LOX IMVI melanoma, with CCRF-CEM leukemia, in the experiment with OVCAR-3 ovarian, in the experiment with KM12 colon, with UACC-62 melanoma and with OVCAR-5 ovarian was over 100 µM in each case. Also, the TGI with M14 melanoma, in the experiment on A549 NSCLC and with NCI-H522 lung was over 100 µM each time.
Consider `O=S1(=O)c2ccccc2NC(c2ccc3ccccc3c2)CC1c1ccccc1F` (stereo not drawn), for which the TGI with LOX IMVI melanoma, in the experiment on CCRF-CEM leukemia, in the experiment with OVCAR-3 ovarian, in the experiment on KM12 colon, in the experiment with UACC-62 melanoma and with OVCAR-5 ovarian was over 100 µM each time. Further, the TGI in the experiment on M14 melanoma, with A549 NSCLC and with NCI-H522 lung was over 100 µM in each case.
Regarding `Clc1cc2nsnc2c(Cl)n1`, the TGI in the experiment with LOX IMVI melanoma was over 100 µM; with CCRF-CEM leukemia, 27.1 µM; in the experiment with OVCAR-3 ovarian it was 33.4 µM; in the experiment with KM12 colon it was over 100 µM; in the experiment on UACC-62 melanoma it was over 100 µM; in the experiment with OVCAR-5 ovarian it was over 100 µM. Further, the TGI with M14 melanoma was 29 µM; in the experiment on A549 NSCLC it was over 100 µM; in the experiment with NCI-H522 lung, 36.7 µM.
With `COC(=O)[C@@H]1[C@H](O)[C@H](C)[C@H](O)[C@@](C)(O)/C=C\C=C(C)C(=O)Nc2c(C)c(OC(C)=O)c3c(c2O)C(=O)C(C)=C2OCOC(=C23)C(C)=C[C@@](C)(O)[C@H](O)[C@@H](C)[C@H]1OC(C)=O`, the TGI was > 100 µM and 66.9 µM and 41.7 µM in the experiment on LOX IMVI melanoma; > 100 µM and 66.9 µM and 47.6 µM with CCRF-CEM leukemia; 87.6 µM and 66.9 µM and > 100 µM in the experiment on OVCAR-3 ovarian; over 100 µM in the experiment with KM12 colon; > 100 µM and 66.9 µM and 54.5 µM in the experiment with UACC-62 melanoma; > 100 µM and 66.9 µM with HCT-116 colon. Besides, the TGI in the experiment on OVCAR-5 ovarian is over 100 µM; with M14 melanoma it was > 100 µM and 66.9 µM and 86.5 µM; in the experiment on A549 NSCLC it was over 100 µM; in the experiment on NCI-H522 lung, > 100 µM and 66.9 µM and 43.6 µM. In addition, the GI50 with CCRF-CEM leukemia is 12.8 µM; in the experiment with OVCAR-3 ovarian it was 56.5 µM; in the experiment on KM12 colon, over 66.9 µM; with UACC-62 melanoma, 25.1 µM; in the experiment with HCT-116 colon, 59.7 µM; in the experiment with M14 melanoma it was > 100 µM and 21 µM and 29.1 µM. The GI50 is over 66.9 µM with A549 NSCLC and 17.8 µM in the experiment with NCI-H522 lung.
Turning to `O=C1C(=O)N(c2ccc(Cl)cc2Cl)C(=O)C(=O)C1c1nc2ccccc2s1`, the TGI with LOX IMVI melanoma is over 100 µM; in the experiment with CCRF-CEM leukemia, 88.9 µM; with OVCAR-3 ovarian, over 100 µM; with KM12 colon it was over 100 µM; in the experiment with UACC-62 melanoma it was over 100 µM; in the experiment on HCT-116 colon, over 100 µM. In addition, the TGI in the experiment on OVCAR-5 ovarian was over 100 µM; in the experiment with M14 melanoma, over 100 µM; with A549 NSCLC, over 100 µM; with NCI-H522 lung, over 57.2 µM.
Consider `COc1ccc2c(C3=C(c4cn(C)c5ccccc45)C(=O)NC3=O)cn(C)c2c1`, for which the GI50 with LOX IMVI melanoma is 0.154 µM; in the experiment with CCRF-CEM leukemia, 0.0961 µM; in the experiment on OVCAR-3 ovarian, 0.0841 µM; in the experiment with KM12 colon it was 0.111 µM; in the experiment on UACC-62 melanoma it was 0.137 µM; in the experiment on HCT-116 colon, 0.112 µM. For the same compound, the figures for the GI50 in the experiment with M14 melanoma, in the experiment with A549 NSCLC and in the experiment with NCI-H522 lung were 0.0999 µM, 0.135 µM and 0.0742 µM, respectively. Besides, the TGI with LOX IMVI melanoma is over 25 µM; in the experiment with CCRF-CEM leukemia it was over 25 µM; with OVCAR-3 ovarian, 1.03 µM; with KM12 colon it was 7.24 µM; in the experiment with UACC-62 melanoma, over 25 µM; in the experiment on HCT-116 colon, over 25 µM. Besides, the TGI in the experiment with M14 melanoma is over 25 µM; in the experiment with A549 NSCLC, over 25 µM; in the experiment on NCI-H522 lung, 0.902 µM.
On to `COc1ccc2c(c1)/C(=C/c1c(C)nc3sc(C)nn13)C(=O)N2`, for which the GI50 in the experiment with LOX IMVI melanoma is 5.49 µM; with CCRF-CEM leukemia, 2.52 µM; in the experiment with OVCAR-3 ovarian, 0.959 µM; in the experiment on KM12 colon, 0.42 µM; in the experiment with UACC-62 melanoma, 6.24 µM; in the experiment on HCT-116 colon, 1.77 µM. Further, the GI50 in the experiment with OVCAR-5 ovarian is 9.28 µM; in the experiment with M14 melanoma it was 1.79 µM; in the experiment with A549 NSCLC, 7.74 µM; in the experiment on NCI-H522 lung, 0.574 µM. Further, the TGI is over 100 µM with LOX IMVI melanoma; over 100 µM in the experiment on CCRF-CEM leukemia; 37.9 µM in the experiment on OVCAR-3 ovarian; over 54.6 µM in the experiment on KM12 colon; over 100 µM in the experiment with UACC-62 melanoma; over 100 µM in the experiment with HCT-116 colon. Besides, the TGI is over 100 µM in the experiment on OVCAR-5 ovarian, over 27.9 µM in the experiment with M14 melanoma, over 100 µM with A549 NSCLC and 5.93 µM in the experiment with NCI-H522 lung.
